# Legend:
# SiHa cells [1] = assay: MTT cell viability assay, SiHa; format: cell-based; settings: HPV16-positive, 80 µM in Fig. 3C, medium replaced daily, A540, mean ± SE, at least two independent runs in sextuplicate
# Description: (§1) Cell viability was determined with an MTT assay. Briefly, the cells were seeded into 96-well plates at a density of 4–5×10^3 cells/well. The cells were allowed to recover for 24 h before the medium was replaced with DMEM supplemented with peptides at different concentrations. The solvent of the peptides was set as the control. The peptide-supplemented medium was replaced daily and the respective concentrations were maintained. The cells were subjected to an MTT cell proliferation assay at different time points. The plates were incubated at 37°C for 3 h with the addition of 20 µl/well MTT (5 mg/ml). Untransformed MTT in the solution was removed by aspiration. The formazan product was dissolved in DMSO, and plates were shaken vigorously at room temperature for 10–15 min to ensure complete solubilization. The optical density of the formazan solutions was measured by microplate reader at 540 nm.
# SiHa cells [2] = assay: Clonogenic assay, SiHa; format: cell-based; settings: 14 days
# Description: Cells were seeded in DMEM at 1×10^3 cells/well density in 12-well plates and allowed to attach to the substrate overnight. Thereafter, cells were treated with 0 µM, 16 µM, 32 µM, 80 µM, and 160 µM peptide in DMEM, and the medium was changed every three days. The plates were observed daily for colony formation. After 8 (for HeLa cells) or 14 (for SiHa and CaSki cells) days of treatment, the cultures were washed three times with PBS and stained with crystal violet in ethanol for 15 min. The colonies were then counted and photographed with the Alphalmager® EP image acquisition system (Alpha Innotech, Santa Clara, CA, USA).
# pRb [3] = assay: Immunohistochemistry of tumor tissues, pRb; format: in vivo, mouse (Balb/C-nu/nu); settings: 400 µg/mouse group vs control
# Description: Three or two mice bearing tumor of each group were prelabeled with intra-peritoneal injection of BrdU (100 mg/kg, Sigma-Aldrich, Inc., Aaint Louis, MO, USA) 15 hours before sacrificed. Tumor specimens were then prepared as formalin-fixed, paraffin-embedded sections for hematoxylin-eosin staining, BrdU and pRb immunohistochemical staining as previously described, [57]. In brief, immunostaining was performed on formalin-fixed, paraffin-embedded sections using the anti-pRb monoclonal and anti- BrdU monoclonal antibodies, respectively. Before the application of the primary antibodies, an antigen retrieval technique was performed. […] The antibodies were detected by means of the Strept Avidin-Biotin Complex (SABC) method (Wuhan Boster Biological Technology, Ltd., Wuhan, P.R. China.) according to the manufacturer's instructions. Stained slides were examined under a Nikon ECLIPSE TE2000-U microscope (Nikon Corporation, Tokyo, Japan) and images were collected and analyzed with Pixera Penguin 600CL DiRactor™ (Pixera Corporation, Los Gatos, CA, USA). BrdU or pRb-positive cells were counted in each section. The total cell number was determined by nuclear staining with hematoxylin. At least 1000 total cells for each case were counted.
# [4] = tested on: mutated cyclin A and E1 promoters; assay: Luciferase reporter assay, E2F-site-mutated promoters (pMCCNA-Luc, pMCCNE1-Luc), SiHa; format: cell-based; settings: 80 µM, 24 h, E2F binding sites mutated
# Source text: HPV16E7-pEYFP plasmid was constructed by sub-cloning the HPV16E7 gene into the EcoRI and BamHI sites of pEYFP-N1. The HPV16E7 gene was obtained by PCR from HPV16E7- pET28a (+) plasmid, which was maintained by our laboratory, using primers pE7N1f and pE7N1b. The pRb gene was obtained by nest PCR from HeLa cDNA using pRb1, pRb2, pRb3, pRb4 as primers. The PCR product was then inserted into the HindIII and Xho I sites of pcDNA3.1-His/V5-Topo. pA3-Luc-Cyclin D1 luciferase reporter plasmid containing the cyclin D1 promoter sequence −1745 to +134 was maintained by our laboratory. Both pCCNE1-Luc and pCCNA1-Luc were constructed by nest PCR to amplify fragments of cyclins E1 and A promoter sequences (cyclin E1: +3 to +594; cyclin A: −284 to +254) which include E2F binding sites, [47] from HeLa cDNA, respectively. Primers used in pCCNE1-Luc construction were P(CCE1), P(CCE2), P(CCE3), and P(CCE4), while primers P(CCA1), P(CCA2), P(CCA3), and P(CCA4) were used in PCCNA1-Luc construction. The PCR products were then cloned into the Kpn1 and Bgl II sites of the pGL3-enhancer (Promega, Madison, WI, USA) luciferase reporter plasmid. […]
# The reporter assays were performed using Bright-Glo™ Luciferase Assay System (Promega, Madison, WI, USA) according to the manufacturer's instructions. […] Each sample was determined in triplicate. […]
# HeLa cells = assay: MTT cell viability assay, HeLa; format: cell-based; settings: HPV18-positive, A540
# Description: as §1
# HPV16 E7 = assay: Immunohistochemistry of tumor tissues, HPV16 E7; format: in vivo, mouse (Balb/C-nu/nu); settings: 400 µg/mouse group vs control
# pRb [5] = assay: pRb phosphorylation Western blot; format: cell-based; settings: SiHa, 80 µM, 24 h
sequence,measurement,setting,value
SACPKGLDWCGG (C&C bridged by disulfide bonds) (disulfide) [Pep-7],cell proliferation (MTT),SiHa cells [1],repressed significantly by Pep-7 in a dose- and time-dependent manner
same,colony formation,SiHa cells [2]; 16-160 µM,inhibited
same,concentration up to which colony number difference vs control became significant (p<0.02),"SiHa cells [2]; vs 0 µM group, three independent experiments",32 µM
same,pRb protein level in tumor tissue,pRb [3],increased
same,"activities of mutated promoters (pMCCNA-Luc, pMCCNE1-Luc)",[4],negligible differences from those in control groups
same,cell proliferation (MTT),HeLa cells,could not repress the proliferation of HeLa cells
same,HPV16E7 protein level in tumor tissue,HPV16 E7,decreased
same,phosphorylation of pRb,pRb [5],not affected significantly
